Data published in patent publication US20100179227A1, “Production method of hop preparation, hop preparation, anti-inflammatory agent, food product and beverage, and oral product” (priority 2006, published 2010).

Legend:
[1] = as described in Patent Documents 1, 2 and 5; cited from earlier work
mRNA of COX-2 gene = experiment: Suppression of COX-2 mRNA expression in gingival epithelial cells stimulated with P. gingivalis vesicles (real-time RT-PCR); assay type: cell-based; conditions: human gingival epithelium-derived immortalized cells stimulated with P. gingivalis-derived vesicles; mRNA measured 24 hours after addition, standardized to GAPDH mRNA
Method: The expression levels of mRNA of COX-2 gene were determined.
The P. gingivalis-derived vesicles were prepared as follows: P. gingivalis strain (ATCC 33277) was cultured for 3 days and the cells were removed from the 500 ml culture by centrifugation and filtration. The supernatant was ultracentrifuged at 100,000 G at 4° C. for 1 hour to obtain the desired vesicles. The expression levels of mRNA of COX-2 gene were determined by measuring the amounts of mRNA by real-time RT-PCR 24 hours after addition of each substance. The PCR was performed by using primers specific for the COX-2 gene and amplification was carried out for 45 cycles. The amount of mRNA was standardized to the amount of mRNA of glyceraldehyde-3-phosphate dehydrogenase.
The 80% ethanol fraction obtained in Example 1 was fractionated by reverse-phase HPLC and the resulting fractions corresponding to the respective peaks were collected. As in Example 2, the fractions were incubated with human gingival epithelium-derived immortalized cells stimulated with the vesicles obtained from P. gingivalis (inflammation-inducing agent). The expression levels of mRNA of COX-2 were determined.

cyclooxygenase-1 (COX-1) = cyclooxygenase-1 (COX-1) (Homo sapiens, UniProt P23219); conditions: according to Non-Patent Document 1; cited from earlier work
Chain of cyclooxygenase-1 (COX-1) (P23219 24-599, species assumed): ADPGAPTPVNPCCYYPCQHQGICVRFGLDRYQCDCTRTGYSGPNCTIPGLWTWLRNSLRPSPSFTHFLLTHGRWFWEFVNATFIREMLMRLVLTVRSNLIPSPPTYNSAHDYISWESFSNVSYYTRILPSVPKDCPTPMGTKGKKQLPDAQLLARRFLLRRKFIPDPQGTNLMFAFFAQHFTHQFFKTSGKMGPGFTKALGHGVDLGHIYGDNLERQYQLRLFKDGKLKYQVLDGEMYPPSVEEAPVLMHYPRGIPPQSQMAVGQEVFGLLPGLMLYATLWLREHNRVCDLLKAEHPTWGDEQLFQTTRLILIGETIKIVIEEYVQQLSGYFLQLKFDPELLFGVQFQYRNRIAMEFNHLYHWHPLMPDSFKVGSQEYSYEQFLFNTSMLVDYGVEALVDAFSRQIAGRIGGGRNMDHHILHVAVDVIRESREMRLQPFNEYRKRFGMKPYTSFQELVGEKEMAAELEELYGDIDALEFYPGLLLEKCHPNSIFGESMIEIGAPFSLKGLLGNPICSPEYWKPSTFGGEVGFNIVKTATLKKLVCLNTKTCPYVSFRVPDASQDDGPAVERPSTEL

| SMILES | anti-inflammatory activity [1] | suppression of the expression of mRNA of COX-2 gene (mRNA of COX-2 gene) | inhibition of cyclooxygenase-1 (COX-1) (cyclooxygenase-1 (COX-1)) |
| --- | --- | --- | --- |
| O=c1c(O[C@@H]2O[C@H](CO)[C@@H](O)[C@H](O)[C@H]2O)c(-c2ccc(O)cc2)oc2cc(O)cc(O)c12 [astragalin, kaempferol-3-O-β-D-glucopyranoside] | exhibit anti-inflammatory activity | activity | – |
| O=c1c(O[C@@H]2O[C@H](CO)[C@@H](O)[C@H](O)[C@H]2O)c(-c2ccc(O)c(O)c2)oc2cc(O)cc(O)c12 [isoquercitrin, quercetin-3-O-β-D-glucopyranoside] | exhibit anti-inflammatory activity | activity | – |
| CC(C)C(=O)c1c(O)cc(O)cc1O[C@@H]1O[C@H](CO)[C@@H](O)[C@H](O)[C@H]1O [MPPG, 2-[(2-methylpropanyl)-phloroglucinol]-1-O-β-D-glucopyranoside] | – | activity | inhibits cyclooxygenase-1 (COX-1) |
